Test results: ChEMBL document CHEMBL1201862, “PubChem BioAssay data set” (2004)
Where a name gives a salt, the structure may show the parent alone. Activity calls are given as the source filed them.

Experiments:
[1] = T. cruzi growth inhibition in host cells, dose response, cell-based, plate reader, dry powder, set 2 (AID 652275); format: functional
[2] = target: T1, Sentrin-specific protease 6 (Homo sapiens, UniProt Q9GZR1); format: functional;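 further: Luminescence-based dose-response confirmatory assay of SENP6 inhibition, following up an ultra-high-throughput screen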
T1 sequence (Q9GZR1 whole entry): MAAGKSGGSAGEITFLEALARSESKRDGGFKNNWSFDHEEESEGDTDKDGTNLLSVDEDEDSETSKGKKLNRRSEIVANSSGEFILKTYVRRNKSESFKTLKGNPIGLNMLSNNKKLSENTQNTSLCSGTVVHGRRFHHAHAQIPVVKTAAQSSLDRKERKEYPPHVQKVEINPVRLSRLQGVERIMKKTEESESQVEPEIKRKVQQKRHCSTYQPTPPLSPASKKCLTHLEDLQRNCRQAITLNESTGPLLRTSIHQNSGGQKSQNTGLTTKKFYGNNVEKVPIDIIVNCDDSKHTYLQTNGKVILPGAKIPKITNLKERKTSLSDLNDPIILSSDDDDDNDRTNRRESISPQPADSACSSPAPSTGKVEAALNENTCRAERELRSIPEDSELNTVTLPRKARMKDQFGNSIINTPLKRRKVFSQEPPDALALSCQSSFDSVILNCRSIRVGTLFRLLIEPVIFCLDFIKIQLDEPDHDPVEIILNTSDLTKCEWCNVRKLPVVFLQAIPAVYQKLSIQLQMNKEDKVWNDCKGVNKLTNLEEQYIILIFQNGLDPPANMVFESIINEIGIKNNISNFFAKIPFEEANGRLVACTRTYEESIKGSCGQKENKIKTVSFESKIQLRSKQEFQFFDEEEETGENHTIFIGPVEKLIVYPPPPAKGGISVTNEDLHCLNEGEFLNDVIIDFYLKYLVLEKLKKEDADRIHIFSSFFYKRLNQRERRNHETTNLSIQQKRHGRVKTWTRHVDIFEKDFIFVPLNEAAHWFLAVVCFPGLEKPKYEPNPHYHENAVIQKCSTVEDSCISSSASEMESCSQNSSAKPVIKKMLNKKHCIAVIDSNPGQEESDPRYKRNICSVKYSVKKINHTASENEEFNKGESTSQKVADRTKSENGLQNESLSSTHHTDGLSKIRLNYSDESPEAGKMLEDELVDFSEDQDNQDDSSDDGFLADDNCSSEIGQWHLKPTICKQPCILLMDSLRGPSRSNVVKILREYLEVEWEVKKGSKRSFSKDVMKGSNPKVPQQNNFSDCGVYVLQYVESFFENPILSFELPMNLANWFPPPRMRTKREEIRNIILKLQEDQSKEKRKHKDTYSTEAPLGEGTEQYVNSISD

[3] = target: Botulinum neurotoxin type F (Clostridium botulinum, UniProt P30996); assay: High-throughput multiplex microsphere dose response for inhibitors of toxin protease, specifically Botulinum neurotoxin light chain F protease, compounds from Cherry Pick 02.; format: functional; details: read-out: EC50_MICROM
[4] = target: T2, Sentrin-specific protease 7 (Homo sapiens, UniProt Q9BQF6); format: functional;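 further: Luminescence-based dose-response confirmation of ultra-high-throughput screening hits, measuring inhibition of SENP7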
T2 sequence (Q9BQF6 whole entry): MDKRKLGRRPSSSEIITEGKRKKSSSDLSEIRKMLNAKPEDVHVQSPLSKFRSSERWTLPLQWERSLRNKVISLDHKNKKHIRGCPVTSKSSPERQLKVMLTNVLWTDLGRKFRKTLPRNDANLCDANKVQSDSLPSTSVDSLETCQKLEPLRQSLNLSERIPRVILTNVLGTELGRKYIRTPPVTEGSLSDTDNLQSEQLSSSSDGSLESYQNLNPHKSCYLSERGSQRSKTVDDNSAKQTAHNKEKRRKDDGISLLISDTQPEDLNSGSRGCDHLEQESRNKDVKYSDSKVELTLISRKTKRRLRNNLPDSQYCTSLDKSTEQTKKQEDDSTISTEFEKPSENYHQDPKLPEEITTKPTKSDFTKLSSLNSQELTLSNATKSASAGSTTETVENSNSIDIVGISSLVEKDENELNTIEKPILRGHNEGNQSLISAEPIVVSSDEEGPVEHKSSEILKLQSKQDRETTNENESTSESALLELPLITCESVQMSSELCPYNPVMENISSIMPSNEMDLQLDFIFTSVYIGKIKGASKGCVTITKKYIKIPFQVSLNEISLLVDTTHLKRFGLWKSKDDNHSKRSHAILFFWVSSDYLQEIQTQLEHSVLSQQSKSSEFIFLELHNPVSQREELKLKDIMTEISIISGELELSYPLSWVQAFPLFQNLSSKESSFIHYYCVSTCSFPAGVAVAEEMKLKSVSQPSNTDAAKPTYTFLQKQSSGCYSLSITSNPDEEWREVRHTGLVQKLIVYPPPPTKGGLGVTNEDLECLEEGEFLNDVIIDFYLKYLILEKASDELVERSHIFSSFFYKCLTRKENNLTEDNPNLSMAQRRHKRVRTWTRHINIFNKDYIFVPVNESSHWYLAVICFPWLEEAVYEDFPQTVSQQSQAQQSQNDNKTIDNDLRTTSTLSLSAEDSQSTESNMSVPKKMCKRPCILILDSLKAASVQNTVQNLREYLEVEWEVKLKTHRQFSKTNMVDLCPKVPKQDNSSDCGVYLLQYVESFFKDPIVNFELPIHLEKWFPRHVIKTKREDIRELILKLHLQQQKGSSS

Caspase-3 = target: T3, Caspase-3 (Homo sapiens, UniProt P42574); format: functional;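 further: Dose-response selectivity test against caspase-3 for candidate inhibitors of sentrin-specific proteases (SENPs)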
T3 sequence (P42574 whole entry): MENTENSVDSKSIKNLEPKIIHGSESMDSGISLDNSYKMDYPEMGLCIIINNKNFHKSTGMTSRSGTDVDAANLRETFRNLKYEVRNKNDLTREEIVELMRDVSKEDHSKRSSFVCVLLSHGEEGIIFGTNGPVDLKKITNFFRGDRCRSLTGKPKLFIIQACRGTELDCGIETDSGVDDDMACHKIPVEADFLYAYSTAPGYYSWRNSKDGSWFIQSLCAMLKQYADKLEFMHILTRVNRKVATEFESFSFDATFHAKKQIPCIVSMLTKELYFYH

[5] = target: T4, Sentrin-specific protease 8 (Homo sapiens, UniProt Q96LD8); format: functional;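 further: luminescence read-out of SENP8 inhibition, dose-response confirmation following an ultra-high-throughput screen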
T4 sequence (Q96LD8 whole entry): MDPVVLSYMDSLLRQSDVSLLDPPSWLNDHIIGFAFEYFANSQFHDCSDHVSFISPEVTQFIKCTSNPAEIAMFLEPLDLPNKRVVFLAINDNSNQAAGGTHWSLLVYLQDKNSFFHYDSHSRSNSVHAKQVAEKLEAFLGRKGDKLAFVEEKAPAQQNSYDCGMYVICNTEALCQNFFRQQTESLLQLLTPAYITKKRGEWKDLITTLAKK

[6] = viability loss in A549 lung cancer cells – cell-based, cherry-picks, […], cytotoxicity control, dose response (AID 1053119); format: functional
[7] = blockers of FN fibrillogenesis by fibroblasts – AH1F cells, Alexa488-FN fluorescence, cherry-picks, dose response (AID 1035475); format: functional, cell-based
fMet-Leu-Phe receptor = fMet-Leu-Phe receptor (Homo sapiens, UniProt P21462); assay: formyl peptide receptor binders – dose response (AID 519); format: functional
Beta-lactamase [8] = target: T5, Beta-lactamase (Pseudomonas aeruginosa, UniProt Q79MP6); assay: […] counterscreen for selective VIM-2 inhibitors: dose response biochemical high throughput screening assay to identify inhibitors of IMP-1 metallo-beta-lactamase.
Beta-lactamase [9] = target: Beta-lactamase (Salmonella choleraesuis (strain SC-B67), UniProt Q5J463); assay: Epi-absorbance-based counterscreen for selective VIM-2 inhibitors: dose response biochemical high throughput screening assay to identify inhibitors of TEM-1 serine-beta-lactamase.
[10] = target: Dual specificity tyrosine-phosphorylation-regulated kinase 1A (Rattus norvegicus, UniProt Q63470); format: biochemical, Homo sapiens
Beta-lactamase [11] = target: T5, Beta-lactamase; assay: inhibition of IMP-1 beta-lactamase activity – biochemical, epi-absorbance, selectivity assay for VIM-2 inhibitor project, dose response (AID 1920)
[12] = inhibitors of EBV LMP1 NF-kappaB signaling – cell-based, luciferase reporter, luminescence, dry powder, set 2, dose response (AID 624376); format: functional
[13] = inhibition of ADAM10 peptide cleavage – biochemical, FRET peptide substrate, recombinant human ADAM10, selectivity assay for ADAM17 exosite inhibitor project, dose response (AID 743259);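 further: ADAM10 enzyme cleaving a FRET peptide substrate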
[14] = target: Disintegrin and metalloproteinase domain-containing protein 17 (Homo sapiens, UniProt P78536); assay: exosite inhibitors of ADAM17, dose response, biochemical (AID 743260)
Albumin = Albumin (Bos taurus, UniProt P02769); assay: Counterscreen for inhibitors of T-cell receptor (TCR)-CD3 interaction: Fluorescence-based biochemical high throughput dose response assay to identify inhibitors of T-cell receptor (TCR)-CD3 interaction using a TAMRA-labeled BSA probe.; format: functional
Nonstructural protein 1 = Nonstructural protein 1 (Influenza A virus, UniProt Q194T2); format: functional, Influenza A virus (A/California/07/2009(H1N1))
[15] = Inhibition of T. cruzi Tulahuen strain amastigotes in L-6 muscle cells Measured in Cell-Based and Microorganism Combination System Using Plate Reader - 2138-03_Inhibitor_Dose_CherryPick_Activity.; format: functional; details: Rattus norvegicus, L6
[16] = intracellular Trypanosoma cruzi inhibitors in host cells – cell-based, plate reader, cherry-pick samples, set 3, dose response (AID 651818); format: functional;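 further: compounds incubated with infected cells for about four days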
[17] = African trypanosome bloodstream form growth inhibition – STIB900 strain, plate reader, cherry pick, dose response (AID 651893); format: functional, cell-based, Trypanosoma brucei rhodesiense; details: Trypanosoma brucei
[18] = L6 myocyte viability loss – cell-based, plate reader, cherry-pick, cytotoxicity control, dose response (AID 651896); format: functional
[19] = antileishmanial activity on axenic amastigotes – plate reader, cherry pick, dose response (AID 651891); format: functional, cell-based; details: Leishmania donovani
[20] = Inhibition of Plasmodium falciparum NF54 Measured in Cell-Based System Using Plate Reader - 2138-11_Inhibitor_Dose_CherryPick_Activity.; format: functional
[21] = anti-trypanosomal activity in BESM host cells – imaging, CA-I/72 strain, bovine embryo skeletal muscle, dry powder, dose response (AID 651885); format: functional, cell-based
[22] = mouse fibroblast viability loss – cell-based, cherry-pick samples, set 2, cytotoxicity control for T. cruzi growth inhibitor project, dose response (AID 651817); format: functional; details: NIH3T3
cells = details: A549
[23] = target: T6, Oxysterols receptor LXR-beta (Homo sapiens, UniProt P55055); format: functional, cell-based;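 further: agonist activity at LXR measured by a cell-based luminescence readout across a dose range, run as a counterscreen for daf-12 agonists; HEK293 cells with Gal4-LXR fusion and GAL4-driven luciferase reporter; potency for activation of Gal4-LXR reporter so compounds are agonists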
T6 sequence (P55055 whole entry): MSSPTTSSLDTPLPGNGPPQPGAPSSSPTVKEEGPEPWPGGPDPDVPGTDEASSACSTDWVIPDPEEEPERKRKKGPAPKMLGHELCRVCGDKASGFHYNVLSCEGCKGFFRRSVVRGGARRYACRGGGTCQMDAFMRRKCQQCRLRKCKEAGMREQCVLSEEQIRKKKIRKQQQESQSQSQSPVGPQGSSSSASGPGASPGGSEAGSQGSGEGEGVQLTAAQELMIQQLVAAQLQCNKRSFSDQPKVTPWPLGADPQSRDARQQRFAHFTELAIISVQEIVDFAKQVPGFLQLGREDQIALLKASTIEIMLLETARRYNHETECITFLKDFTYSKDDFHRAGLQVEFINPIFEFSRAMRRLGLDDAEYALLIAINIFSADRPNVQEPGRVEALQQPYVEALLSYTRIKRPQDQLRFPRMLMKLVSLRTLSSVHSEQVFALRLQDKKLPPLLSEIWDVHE

[24] = viability loss in HepG2 hepatoma cells – cell-based, cherry-picks, set 5, cytotoxicity control, dose response (AID 1053118); format: functional
[25] = viability loss in HEK293 kidney cells – cell-based, cherry-picks, set 5, cytotoxicity control, dose response (AID 1053117); format: functional
[26] = activation of miR-122 Renilla sensor silencing – cell-based, Huh7 psiCHECK-miR122, Renilla luciferase, cherry-picked, dose response (AID 651956); format: functional;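 further: huh7 hepatoma cells stably carrying a psiCHECK-2 miR-122 sensor plasmid; renilla luciferase signal reporting endogenous miR-122 activity after 48 h compound exposure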
[27] = general mammalian cell viability loss – activator set, cherry-pick, cytotoxicity control for miR-122 modulator project, dose response (AID 720690); format: functional, cell-based;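 further: HEK293T human cells scored for general mammalian cytotoxicity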

T5 sequence (Q79MP6 whole entry): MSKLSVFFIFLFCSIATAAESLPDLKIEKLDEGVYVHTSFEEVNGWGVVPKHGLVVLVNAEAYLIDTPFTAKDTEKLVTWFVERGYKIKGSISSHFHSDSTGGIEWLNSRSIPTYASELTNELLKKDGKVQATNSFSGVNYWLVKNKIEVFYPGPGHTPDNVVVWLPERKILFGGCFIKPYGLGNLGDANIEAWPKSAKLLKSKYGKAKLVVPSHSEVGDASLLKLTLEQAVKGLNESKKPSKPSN
Chain of fMet-Leu-Phe receptor (P21462 whole entry): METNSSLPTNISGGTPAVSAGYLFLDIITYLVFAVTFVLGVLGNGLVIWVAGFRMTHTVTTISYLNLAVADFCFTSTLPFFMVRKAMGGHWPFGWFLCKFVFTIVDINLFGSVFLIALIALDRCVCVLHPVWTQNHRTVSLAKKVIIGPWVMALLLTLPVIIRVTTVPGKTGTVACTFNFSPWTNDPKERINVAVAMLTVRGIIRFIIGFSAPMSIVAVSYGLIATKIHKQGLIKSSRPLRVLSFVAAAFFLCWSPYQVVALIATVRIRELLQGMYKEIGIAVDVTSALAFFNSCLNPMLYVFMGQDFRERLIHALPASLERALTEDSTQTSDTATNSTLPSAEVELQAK
Chain of Nonstructural protein 1 (Q194T2 whole entry): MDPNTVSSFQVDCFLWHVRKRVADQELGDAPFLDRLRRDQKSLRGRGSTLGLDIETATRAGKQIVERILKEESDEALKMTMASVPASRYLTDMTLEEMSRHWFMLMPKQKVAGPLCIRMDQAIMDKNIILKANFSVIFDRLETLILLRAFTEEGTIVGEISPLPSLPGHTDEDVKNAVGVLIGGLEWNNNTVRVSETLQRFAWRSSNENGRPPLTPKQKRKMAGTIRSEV
Chain of Botulinum neurotoxin type F (P30996 1-436 limits assumed): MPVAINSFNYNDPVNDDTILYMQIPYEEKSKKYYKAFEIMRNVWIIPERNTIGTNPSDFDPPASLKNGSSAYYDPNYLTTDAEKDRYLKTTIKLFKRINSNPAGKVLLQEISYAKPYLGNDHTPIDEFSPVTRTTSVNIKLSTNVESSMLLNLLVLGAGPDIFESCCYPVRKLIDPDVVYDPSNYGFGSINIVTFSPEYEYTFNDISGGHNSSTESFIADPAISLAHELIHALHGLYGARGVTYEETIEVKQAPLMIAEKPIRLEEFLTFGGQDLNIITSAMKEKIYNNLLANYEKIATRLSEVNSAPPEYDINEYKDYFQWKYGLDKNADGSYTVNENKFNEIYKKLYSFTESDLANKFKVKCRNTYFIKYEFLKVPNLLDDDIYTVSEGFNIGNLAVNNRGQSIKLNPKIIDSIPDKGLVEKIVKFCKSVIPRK
Chain of Beta-lactamase (Salmonella choleraesuis (strain SC-B67), UniProt Q5J463) (Q5J463 whole entry): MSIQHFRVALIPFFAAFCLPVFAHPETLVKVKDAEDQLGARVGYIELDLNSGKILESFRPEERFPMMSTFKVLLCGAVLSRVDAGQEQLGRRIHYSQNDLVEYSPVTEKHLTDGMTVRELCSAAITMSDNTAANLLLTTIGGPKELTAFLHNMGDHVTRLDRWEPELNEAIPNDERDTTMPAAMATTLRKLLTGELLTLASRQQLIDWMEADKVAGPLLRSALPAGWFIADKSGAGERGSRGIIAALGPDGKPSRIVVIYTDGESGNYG
Chain of Albumin (P02769 whole entry): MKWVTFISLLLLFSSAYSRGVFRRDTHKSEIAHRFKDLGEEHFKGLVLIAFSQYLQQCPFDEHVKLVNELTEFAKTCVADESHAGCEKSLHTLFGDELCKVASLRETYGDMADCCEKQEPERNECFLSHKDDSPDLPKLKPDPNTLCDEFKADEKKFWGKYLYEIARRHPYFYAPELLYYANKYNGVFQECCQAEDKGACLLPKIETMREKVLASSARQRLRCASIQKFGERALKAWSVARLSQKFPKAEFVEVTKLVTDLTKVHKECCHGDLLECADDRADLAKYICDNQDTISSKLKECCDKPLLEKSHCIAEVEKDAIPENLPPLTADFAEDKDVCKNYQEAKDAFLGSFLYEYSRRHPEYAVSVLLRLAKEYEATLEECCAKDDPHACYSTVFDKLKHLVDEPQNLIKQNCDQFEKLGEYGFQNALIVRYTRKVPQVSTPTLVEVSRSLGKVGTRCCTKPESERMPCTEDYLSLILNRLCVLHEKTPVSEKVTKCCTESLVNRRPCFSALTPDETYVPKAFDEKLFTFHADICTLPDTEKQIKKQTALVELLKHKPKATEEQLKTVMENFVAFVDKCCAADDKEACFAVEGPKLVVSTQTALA
Chain of Disintegrin and metalloproteinase domain-containing protein 17 (P78536 whole entry, the tested form may be a part): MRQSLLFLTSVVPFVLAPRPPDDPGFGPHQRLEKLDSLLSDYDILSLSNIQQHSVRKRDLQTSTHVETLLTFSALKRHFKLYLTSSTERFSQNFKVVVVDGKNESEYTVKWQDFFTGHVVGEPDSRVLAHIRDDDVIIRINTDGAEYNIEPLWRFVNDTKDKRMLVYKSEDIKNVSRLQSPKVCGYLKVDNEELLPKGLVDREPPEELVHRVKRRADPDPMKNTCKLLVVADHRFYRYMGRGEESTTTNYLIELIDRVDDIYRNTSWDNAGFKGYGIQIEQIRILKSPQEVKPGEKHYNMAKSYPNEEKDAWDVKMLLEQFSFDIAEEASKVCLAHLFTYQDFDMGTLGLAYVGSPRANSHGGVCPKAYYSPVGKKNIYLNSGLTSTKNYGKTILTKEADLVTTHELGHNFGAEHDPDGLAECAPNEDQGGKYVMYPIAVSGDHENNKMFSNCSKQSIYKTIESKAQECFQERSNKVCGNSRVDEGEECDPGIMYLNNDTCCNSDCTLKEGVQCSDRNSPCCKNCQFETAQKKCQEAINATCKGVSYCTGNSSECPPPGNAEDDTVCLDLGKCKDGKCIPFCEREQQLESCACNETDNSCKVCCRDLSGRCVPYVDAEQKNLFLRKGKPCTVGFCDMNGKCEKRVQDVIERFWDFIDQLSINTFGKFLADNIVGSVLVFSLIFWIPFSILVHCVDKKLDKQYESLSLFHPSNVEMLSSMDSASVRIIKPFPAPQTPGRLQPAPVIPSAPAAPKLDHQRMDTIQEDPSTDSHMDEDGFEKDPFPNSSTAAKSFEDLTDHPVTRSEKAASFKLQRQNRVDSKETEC

C[C@H]1CN([C@@H](C)CO)C(=O)c2cccc(NC(=O)c3ccncc3)c2O[C@@H]1CN(C)Cc1ccccc1Cl
AC50 [1]: 0.165 µM (active)

CCc1cccc2c(C(=O)COC(=O)c3ccccc3)c[nH]c12
IC50 [2]: > 100 µM (inactive)
EC50 [3]: > 20 µM (inactive)
IC50 [4]: 4.08 µM (active)
IC50 (Caspase-3): 49.9 µM (active)
IC50 [5]: > 100 µM (inactive)

O=C(NCc1ccccc1)c1ccc(-c2cn[nH]c2)c2ccoc12
AC50 [6]: > 52 µM (inactive)
AC50 [7]: 0.142 µM (active)

CCN(CCCc1ccccc1)CCCc1ccccc1 [ALVERINE CITRATE]
Ki (fMet-Leu-Phe receptor): > 66.7 µM (inactive)

O=C(O)c1[nH]c2ccc(Br)cc2c1CCN1C(=O)c2cccc([N+](=O)[O-])c2C1=O
IC50 (Beta-lactamase [8]): > 59.6 µM (inactive)
IC50 (Beta-lactamase [9]): > 59.6 µM (inactive)
AC50 [10]: 23.1 µM (active)
IC50 (Beta-lactamase [11]): > 59.6 µM (inactive)

C[C@@H](NC(=O)C[C@H]1C=C[C@@H](NC(=O)Cc2ccccn2)[C@H](CO)O1)c1ccccc1
AbsAC35 [12]: 52.1 µM

CCOc1ccc(CNC(=S)N/N=C/c2ccc(OC)c(OC)c2)cc1
IC50 [13]: > 69.5 µM (inactive)
IC50 [14]: > 69.5 µM (inactive)

O=C(NC(=S)NNC(=O)c1ccccc1O)c1cccnc1
IC50 (Albumin): > 94.1 µM (inactive)
IC50 (Nonstructural protein 1): 7.11 µM (active)

C[C@@H]1CN([C@@H](C)CO)C(=O)c2cccc(NC(=O)c3ccncc3)c2O[C@H]1CN(C)Cc1ccc(-c2ccccc2)cc1
IC50 [15]: 1.2 µM (active)
AC50 [16]: 0.08 µM (active)
IC50 [17]: 0.729 µM (active)
IC50 [18]: 13.5 µM (active)
IC50 [19]: 13.3 µM (inactive)
IC50 [20]: 1.2 µM (active)
IC50 [21]: 0.146 µM (active)
AC50 [22]: 21.9 µM (active)

Fc1ccc(-c2nc3ccccn3c2NCc2ccc3c(c2)OCO3)cc1
AC50 (cells): > 52 µM (inactive)

Cn1c(O)c(N=NC(=O)c2ccco2)c2ccccc21
EC50 [23]: > 67.5 µM (inactive)

CO[C@@H]1CN(C)C(=O)c2cc(NC(=O)Nc3cc(Cl)cc(Cl)c3)ccc2OC[C@H](C)NC[C@H]1C
AC50 [24]: 10.9 µM (active)
AC50 [25]: 12.8 µM (active)
AC50 [26]: 10.1 µM (active)
AC50 [7]: 29 µM (active)
AC50 [27]: 17.6 µM (active)
